The source of these data is patent US20230027601A1, “METHOD FOR MANUFACTURING REVAUDIOSIDE-D-CONTAINING CRYSTALLIZED PRODUCT, AND REVAUDIOSIDE-D-CONTAINING CRYSTALLIZED PRODUCT” (SUNTORY HOLDINGS LIMITED, priority 2019, published 2023).

Molecules are shown by their SMILES.

The nature of the data set: saturated solubility of RebA and RebD in ethanol solvent (excess loading, 24 h stirring, filtrate measured with LCMS). The class given is physicochemical. To be noted: for saturated solubility: 90% by mass of EtOH, 10° C., values used in calculation of the degree of supersaturation; for saturated dissolution concentration: 90% ethanol solvent at 10° C., according to FIG. 1. Here is the method:
The saturated solubility is herein measured according to the following method. That is, 100 ml of a solvent having a predetermined methanol or ethanol concentration (w/w) is placed in a container (having a volume of 100 ml or 200 ml, suitably 200 ml), the liquid temperature is set to 10° C. by a water bath in advance, and then the solvent is stirred at 200 rpm, and a target substance is loaded in an excessive amount (amount until suspension is made). After 24 hours, a filtrate is obtained by a 0.45-um membrane filter, and the amount of the target substance (RebA or RebD) included in the filtrate is measured with LCMS. LCMS here used is suitably LCMS 8050 manufactured by Shimadzu Corporation.
Specifically, 100 ml of a solvent having a predetermined ethanol concentration (w/w) was placed in a […] glass container (separable round-bottomed flask, Tokyo Rikakikai Co., Ltd.), set to a predetermined temperature by a water bath (PCC-7000, Tokyo Rikakikai Co., Ltd.) in advance, and then stirred (SPZ-100, Tokyo Rikakikai Co., Ltd.) at 200 rpm, and RebA (J-100, Morita Kagaku Kogyo Co., Ltd.) or RebD (Jining Renewal & Joint International, China) was loaded in an excessive amount (amount until suspension was achieved). After 24 hours, a filtrate was obtained by a 0.45-um membrane filter, the amount of RebA or RebD included in the filtrate was measured with LCMS (LCMS 8050 manufactured by Shimadzu Corporation), and the solubility curve was created. The results are illustrated in FIG. 1.

Turning to `C=C1C[C@@]23CC[C@H]4[C@@](C)(CCC[C@@]4(C)C(=O)O[C@@H]4O[C@H](CO)[C@@H](O)[C@H](O)[C@H]4O)[C@@H]2CC[C@]1(O[C@@H]1O[C@H](CO)[C@@H](O)[C@H](O[C@@H]2O[C@H](CO)[C@@H](O)[C@H](O)[C@H]2O)[C@H]1O[C@@H]1O[C@H](CO)[C@@H](O)[C@H](O)[C@H]1O)C3` [RebA, rebaudioside A], the saturated solubility is recorded as 8270.5 ppm and the saturated dissolution concentration was 8,250 ppm.
For `C=C1C[C@@]23CC[C@H]4[C@@](C)(CCC[C@@]4(C)C(=O)O[C@@H]4O[C@H](CO)[C@@H](O)[C@H](O)[C@H]4O[C@@H]4O[C@H](CO)[C@@H](O)[C@H](O)[C@H]4O)[C@@H]2CC[C@]1(O[C@@H]1O[C@H](CO)[C@@H](O)[C@H](O[C@@H]2O[C@H](CO)[C@@H](O)[C@H](O)[C@H]2O)[C@H]1O[C@@H]1O[C@H](CO)[C@@H](O)[C@H](O)[C@H]1O)C3` [RebD, rebaudioside D] the same measures were 99.33 ppm and 99.3 ppm.
